Source: the supplement of paper PMC10702517
± gives the standard deviation.

Key:
[1] = chemical recovery by SPE of plasma after PDMS sampling; higher = better extraction; settings: pooled human plasma, extraction method: HLB SPE of plasma after PES
[2] = chemical recovery from spiked human plasma; higher = better extraction; settings: pooled human plasma
[3] = extraction method: PES+SPE (3 d PDMS equilibration then HLB SPE)
[4] = extraction method: SPE only (HLB 96-well)
[5] = extraction method: SPE only (HLB 96-well), PES comparison experiment
[6] = extraction method: solvent precipitation (ACN + hexane)
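For chemical recovery by SPE of plasma after PDMS sampling in this document: over 400 spiked chemicals quantified by LC-HRMS or GC-HRMS via internal standard calibration, recovery relative to spike mix added to unspiked plasma extract to correct matrix effects.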

Compound	chemical recovery by SPE of plasma ([1]; equilibration time (d): 1) [%]	chemical recovery by SPE of plasma ([1]; equilibration time (d): 3) [%]	chemical recovery by SPE of plasma ([1]; equilibration time (d): 6) [%]	chemical recovery [2, 3] [%]	chemical recovery [2, 4] [%]	chemical recovery [2, 5] [%]	chemical recovery [2, 6] [%]
CC[C@H]1OC(=O)[C@H](C)[C@@H](O[C@H]2C[C@@](C)(OC)[C@@H](O)[C@H](C)O2)[C@H](C)[C@@H](O[C@@H]2O[C@H](C)C[C@H](N(C)C)[C@H]2O)[C@](C)(OC)C[C@@H](C)C(=O)[C@H](C)[C@@H](O)[C@]1(C)O [Clarithromycin]	22 ± 3.3	24.4 ± 2.8	22.3 ± 2.2	30.2 ± 4.1	45.1 ± 2.3	44.1 ± 6.5	69.1 ± 2.1
COCC(C)N(C(=O)CS(=O)(=O)O)c1c(C)csc1C (centres undefined) [Dimethenamid ESA]	45.5 ± 8.5	51.4 ± 4.4	45.4 ± 4.1	–	–	49.6 ± 3.4	–
COCC(C)N(C(=O)C(=O)O)c1c(C)csc1C (centres undefined) [Dimethenamid OA]	52.2 ± 8.1	58.9 ± 3.8	51.8 ± 2.6	–	–	51.7 ± 4.2	–
COC(=O)c1cc(C(=O)OC)cc(S(=O)(=O)O)c1 [Dimethyl-5-sulfoisophthalate]	49.8 ± 6.7	54.2 ± 3.9	49.3 ± 4	44.6 ± 2.1	45.3 ± 3	52.4 ± 4.3	46.7 ± 3.3
O=P(O)(Oc1ccccc1)Oc1ccccc1 [Diphenylphosphate]	46.4 ± 13	56 ± 6.6	49.8 ± 8.2	–	44.6 ± 4.8	47 ± 7	–
O=c1[nH]c2ccccc2n1CCCN1CCC(n2c(=O)[nH]c3cc(Cl)ccc32)CC1 [Domperidone]	44.4 ± 5.1	46.3 ± 3.7	42.3 ± 4.4	–	–	44.6 ± 4.9	–
CC[C@H]1OC(=O)[C@H](C)[C@@H](O[C@H]2C[C@@](C)(OC)[C@@H](O)[C@H](C)O2)[C@H](C)[C@@H](O[C@@H]2O[C@H](C)C[C@H](N(C)C)[C@H]2O)[C@](C)(O)C[C@@H](C)C(=O)[C@H](C)[C@@H](O)[C@]1(C)O [Erythromycin]	–	11.9 ± 6.8	6.49 ± 3.8	4.25 ± 0.61	10.9 ± 8.2	3.18 ± 1.2	66 ± 3.4
COc1cc([C@@H]2c3cc4c(cc3[C@@H](O[C@@H]3O[C@@H]5CO[C@@H](C)O[C@H]5[C@H](O)[C@H]3O)[C@H]3COC(=O)[C@H]23)OCO4)cc(OC)c1O [Etoposide]	36.8 ± 3.4	40.9 ± 6.5	38.4 ± 0.53	54.9 ± 4.7	–	–	35.5 ± 10
C[C@@H]1C[C@H]2[C@@H]3C[C@H](F)C4=CC(=O)C=C[C@]4(C)[C@@]3(F)[C@@H](O)C[C@]2(C)[C@@]1(O)C(=O)CO [Flumethasone]	46.8 ± 5.2	51.4 ± 1.9	44.3 ± 2.9	–	–	47.9 ± 6.4	–
NCC1(CC(=O)O)CCCCC1 [Gabapentin]	–	–	0.00483 ± 0.0084	–	14.7 ± 7.2	0.0969 ± 0.19	–
COc1ccc(Cl)cc1C(=O)NCCc1ccc(S(=O)(=O)NC(=O)NC2CCCCC2)cc1 [Glibenclamide]	–	43.4 ± 2.1	38 ± 3.8	–	–	42.1 ± 7	74.9 ± 2.6
CCC1=C(C)CN(C(=O)NCCc2ccc(S(=O)(=O)NC(=O)NC3CCC(C)CC3)cc2)C1=O (centres undefined) [Glimepiride]	46.6 ± 3.4	45.2 ± 1.8	42.1 ± 3	36.8 ± 4.8	32 ± 1.9	42.6 ± 4.8	71.4 ± 5.3
NC(=O)N=C(N)N [Guanylurea]	0.503 ± 1.2	0.581 ± 0.1	0.912 ± 0.18	–	–	1.06 ± 1.4	–
CCN(CCCCOC(=O)c1ccc(OC)c(OC)c1)C(C)Cc1ccc(OC)cc1 (centres undefined) [Mebeverine]	0.287 ± 0.15	0.295 ± 0.096	0.145 ± 0.0059	–	–	38.1 ± 4.5	69.6 ± 4.1

The remaining lines, values ahead:

chemical recovery by SPE of plasma ([1]; equilibration time (d): 1) [%]	chemical recovery by SPE of plasma ([1]; equilibration time (d): 3) [%]	chemical recovery by SPE of plasma ([1]; equilibration time (d): 6) [%]	chemical recovery [2, 3] [%]	chemical recovery [2, 4] [%]	chemical recovery [2, 5] [%]	chemical recovery [2, 6] [%]	Compound
47.2 ± 6.6	52.3 ± 5.3	47.7 ± 2.9	69.9 ± 7.9	50.9 ± 2.3	48.6 ± 6.5	–	O=C(O)COCCN1CCN(C(c2ccccc2)c2ccc(Cl)cc2)CC1 (centres undefined) [Cetirizine]
53.1 ± 9.5	58.7 ± 6.2	51.5 ± 4.8	44.8 ± 1.8	44.7 ± 2.7	61 ± 5.4	66.6 ± 7.9	CC(C)(Oc1ccc(Cl)cc1)C(=O)O [Clofibric acid]
56.4 ± 6.3	57.1 ± 3.3	54.9 ± 6.9	50.8 ± 2.9	38.4 ± 3.9	49.9 ± 3.3	71.9 ± 3.3	CC[N+](CC)(CC(=O)Nc1c(C)cccc1C)Cc1ccccc1 [Denatonium]
–	23.6 ± 2.8	28.2 ± 8.7	42.4 ± 2.5	40.3 ± 3.8	45.2 ± 5	79.6 ± 8.1	Cc1cccc(C)c1NC(=O)CS(=O)(=O)O [Dimethachlor CGA369-873]
43.2 ± 7.6	47 ± 2.3	44.9 ± 4.6	42.2 ± 3.9	36.2 ± 1.4	37.8 ± 5.6	70.5 ± 3.8	CCOC(=O)[C@H](CCc1ccccc1)N[C@@H](C)C(=O)N1CCC[C@H]1C(=O)O [Enalapril]
55.5 ± 12	70.9 ± 4.3	66.2 ± 5.9	44.9 ± 5.1	48.4 ± 7.2	50 ± 6.5	69.3 ± 6.1	NS(=O)(=O)c1cc(C(=O)O)c(NCc2ccco2)cc1Cl [Furosemide]
46.2 ± 7.8	50 ± 4.5	47 ± 3.7	55.5 ± 1.2	49.1 ± 3.9	46.4 ± 4	48.3 ± 10	O=c1c(-c2ccc(O)cc2)coc2cc(O)cc(O)c12 [Genistein]
–	41.1 ± 4.4	35.8 ± 3.6	33.6 ± 5.2	33.3 ± 1.8	31 ± 6	–	COc1ccc2c(c1)c(CC(=O)O)c(C)n2C(=O)c1ccc(Cl)cc1 [Indometacin]
47.5 ± 5.5	54 ± 2.6	48.2 ± 2.2	56.1 ± 6	46.1 ± 2.4	53.1 ± 4.2	68.4 ± 3.2	CC(C(=O)O)c1cccc(C(=O)c2ccccc2)c1 (centres undefined) [Ketoprofen]
46.4 ± 3.9	50.6 ± 3.4	44.8 ± 2.3	47.4 ± 3.7	55.6 ± 8.6	51.3 ± 4.4	70.5 ± 3.8	CC(CCc1ccccc1)NCC(O)c1ccc(O)c(C(N)=O)c1 (centres undefined) [Labetalol]
3.98 ± 0.26	3.93 ± 0.72	2.64 ± 0.097	–	–	50.8 ± 7.4	73.1 ± 3.5	CN(C)C(=O)C(CCN1CCC(O)(c2ccc(Cl)cc2)CC1)(c1ccccc1)c1ccccc1 [Loperamide]
44.8 ± 3.8	50.8 ± 2.6	46.7 ± 1.6	44.5 ± 4.3	41.2 ± 2.9	40.8 ± 7.5	77.2 ± 3.6	CCCCc1nc(Cl)c(CO)n1Cc1ccc(-c2ccccc2-c2nnn[nH]2)cc1 [Losartan]
14.9 ± 5	16.4 ± 0.37	14.5 ± 3	60.9 ± 5.4	45 ± 7.8	15.7 ± 2.9	54.2 ± 2.1	Cc1cccc(Nc2ccccc2C(=O)O)c1C [Mefenamic acid]
42 ± 6	49.95 ± 0.36	46.4 ± 4.8	–	–	37.9 ± 3.8	–	Cc1cccc(C(=O)O)c1N(Cn1cccn1)C(=O)C(=O)O [Metazachlor BH479-12]
54.5 ± 12	57.9 ± 5	54.7 ± 7.3	–	48.2 ± 5.2	47.4 ± 4.1	81 ± 4.5	Cc1cccc(C)c1N(Cn1cccn1)C(=O)C[S+]([O-])CC(=O)O (centres undefined) [Metazachlor BH 479-9]
